The term IC50 denotes the concentration that inhibits the measured activity by half.

The target of this assay is peripheral (ω3) benzodiazepine (BZ) receptor (Rattus norvegicus, UniProt P16257). Briefly: BZω3 (peripheral-type) benzodiazepine receptor binding assay.
Description: Experiment 1: Central (ω1, ω2) and peripheral (ω3) benzodiazepine (BZ) receptor binding assays
BZω1 and BZω2 receptor binding assays were carried out according to the method of Stephens, D. N. et al. [cf.
Receptor membrane fractions for ω1, ω2 and ω3 were prepared from the cerebellum (ω1), spinal cord (ω1) or kidney (ω3) in 7-8 week old male rats of Wistar strain by the procedure described below.
After the cerebellum or spinal cord was homogenized with 20 volumes of ice-cold 50 mM Tris-citrate buffer (pH 7.1), the homogenate was centrifuged for 15 minutes at 40,000 g. The pellet obtained was washed 4 times by the same procedure, frozen and stored for 24 hours at -60° C. The resulting pellet, after being thawed, washed with the buffer and centrifuged, was suspended in the buffer I for the binding assay (50 mM Tris-HCl buffer containing 120 mM NaCl, 5 mM KCl, 2 mM CaCl2 and 1 mM MgCl2 ; pH 7.4) and the suspension thus obtained (containing 1 g wet tissue/40 ml) was used for the BZω1 and BZω2 receptor binding assays. On the other hand, the kidney was homogenized with 20 volumes of the ice-cold buffer II for the binding assay (50 mM Na--K phosphate buffer containing 100 mM NaCl; pH 7.4), filtered through 4 sheets of gauze, and centrifuged for 20 minutes at 40,000 g. The pellet obtained was suspended in the buffer II and the suspension (containing 1 g wet tissue/100 ml) was used for the binding assay as BZω3 receptor membrane source.
Flumazenil (final concentration: 0.3 nM for (ω1 and 1 nM for ω2) and flunitrazepam (final concentration: 10 μM) were used for the BZω1 or BZω2 receptor binding assays as the isotope-labeled and unlabeled ligands, respectively. For the BZω3 receptor binding assay, [^3 H] 4'-chlorodiazepam (7-chloro-1,3-dihydro-1-methyl-5-(4-chlorophenyl)-2H-1,4-benzodiazepin-2-one) (final concentration: 0.5 nM) and diazepam (final concentration: 100 μM) were used as the isotope-labeled and unlabeled ligands, respectively. Incubation was performed for 30 minutes at 37° C. in the BZω1 or BZω2 receptor binding assays, and for 150 minutes at 0° C. in the BZω3 receptor binding assay. The BZω1 or BZω2 receptor binding assays were carried out in the presence of bicuculline (final concentration: 100 μM).
The binding assay was performed by the following procedure. After adding each test compound at certain known concentrations, a [^3 H] ligand and the buffer I or II to each test tube, each assay was started by addition of membrane preparation (total volume of 1 ml). After incubation, the assay was terminated by filtration with suction through a Whatman GF/B glass fiber filter using a cell harvester (Brandel, USA). The filters were rapidly washed 3 times with 5 ml of ice-cold 50 mM Tris-HCl buffer (pH 7.7) for ω1 and ω2, or the buffer II forω3, and transferred to scintillation vials containing 10 ml liquid scintillation cocktail (ACS-II, Amersham, USA). After a few hours, retained radioactivity was counted by a liquid scintillation spectrometer. Specific binding of [^3 H] ligands was calculated as the difference between amounts of radioactivity bound in the presence and absence of excess unlabeled ligands.
With `CCCN(CCC)C(=O)C(CO)Nc1nc(-c2ccccc2)nc2c1CCCC2` (centres unmarked) [Example 118, 3-hydroxy-2-(5,6,7,8-tetrahydro-2-phenyl-4-quinazolinylamino)-N,N-dipropylpropanamide], the IC50 is 1.07 nM. The result for `CN(C(=O)CNc1nc(-c2ccc(Cl)cc2)nc2c1CCCC2)c1ccc(Cl)cc1` [Example 109] reads 2.09 nM.

Regarding `CCCN(CCC)C(=O)CNc1nc(-c2ccccc2)ncc1CO` [Example 127, 2-(5-hydroxymethyl-2-phenyl-4-pyrimidinylamino)-N,N-dipropylacetamide], the IC50 is 4.35 nM. The result for `CCCN(CCC)C(=O)COc1nc(-c2ccccc2)nc(C)c1Cl` [Example 167, 2-(5-chloro-6-methyl-2-phenyl-4-pyrimidinyloxy)-N,N-dipropylacetamide] reads 0.79 nM. The result for `CCCN(CCC)C(=O)CNc1nc(-c2ccccc2)nc(CC)c1C` [Example 85, 2-(6-ethyl-5-methyl-2-phenyl-4-pyrimidinylamino)-N,N-dipropylacetamide] reads 0.18 nM; that for `CCCN(CCC)C(=O)CNc1nc(-c2ccc(Cl)cc2)nc2c1CCCC2` [Example 104], 3.44 nM. Take `CN(C(=O)COc1nc(-c2ccccc2)nc2c1CCCC2)c1ccccc1` [Example 180]: the IC50 stood at 1.65 nM.

`Cc1nc(-c2ccccc2)nc(OCC(=O)N(C)c2ccc(Cl)cc2)c1C` [Example 149] came in with an IC50 of 1.14 nM. The compound `CCCCN(CCCC)C(=O)COc1nc(-c2ccc(F)cc2)nc2c1CCCC2` [Example 134] had an IC50 of 3.07 nM. The result for `CN(C(=O)COc1nc(-c2ccc(Cl)cc2)nc2c1CCCC2)c1ccccc1` [Example 181] reads 1.61 nM. In the case of `CCCN(CCC)C(=O)C1Cc2ccccc2N1c1nc(-c2ccccc2)nc(C)c1C` (centres unmarked) [Example 81, 2,3-dihydro-1-(5,6-dimethyl-2-phenyl-4-pyrimidinyl)-N,N-dipropyl-1H-indole-2-carboxamide], the IC50 came to 6.9 nM. For the compound `CN(C(=O)CNc1nc(-c2ccccc2)nc2c1CCCC2)c1ccc(Cl)cc1` [Example 108], the IC50 turned out to be 1.21 nM. `CCCN(CCC)C(=O)COc1nc(-c2ccc(Cl)cc2)nc(C)c1C` [Example 137] returned a half-maximal inhibitory concentration (IC50) of 0.93 nM.

In turn, `CCCCN(CCCC)C(=O)CNc1nc(-c2ccc(Cl)cc2)nc2c1CCCC2` [Example 107] displayed an IC50 of 4.23 nM. The result for `CCCN(C(=O)COc1nc(-c2ccccc2)nc2c1CCCC2)c1ccccc1` [Example 182] reads 4.57 nM; that for `CCCN(CCC)C(=O)COc1cc(C(F)(F)F)nc(-c2ccccc2)n1` [Example 160], 4.3 nM; that for `CCCN(CCC)C(=O)CNc1nc(-c2ccccc2)nc2c1CCCC2` [Example 102, 2-(5,6,7,8-tetrahydro-2-phenyl-4-quinazolinylamino)-N,N-dipropylacetamide], 3.31 nM. `CN(C(=O)COc1nc(-c2ccccc2)nc2c1CCCC2)c1ccc(Cl)cc1` [Example 162] yielded an IC50 of 1.19 nM. The result for `CCN(C(=O)COc1nc(-c2ccccc2)nc(C)c1C)c1ccccc1` [Example 151] reads 0.58 nM; that for `CCCN(CCC)C(=O)COc1nc(-c2ccc(F)cc2)nc(C)c1C` [Example 138], 0.53 nM. Compound `CCCN(CCC)C(=O)C(C)Oc1nc(-c2ccccc2)nc2c1CCCC2` (centres unmarked) [Example 169, 2-(5,6,7,8-tetrahydro-2-phenyl-4-quinazolinyloxy)-N,N-dipropylpropanamide] showed an IC50 of 1.15 nM. Regarding `CCCCN(CCCC)C(=O)CNc1nc(-c2ccc(Cl)cc2)nc(C)c1C` [Example 15], the IC50 amounted to 3.86 nM. The result for `Cc1nc(-c2cccc(Cl)c2)nc(OCC(=O)N(C)c2ccccc2)c1C` [Example 145] reads 1.6 nM. In turn, `CCCCN(CCCC)C(=O)CNc1nc(-c2ccccc2)nc2c1CCCC2` [Example 105] returned an IC50 of 4.18 nM. The result for `CN(C(=O)C1CCCN1c1nc(-c2ccccc2)nc2c1CCCC2)c1ccc(Cl)cc1` (centres unmarked) [Example 120, N-(4-Chlorophenyl)-1-(5,6,7,8-tetrahydro-2-phenyl-4-quinazolinyl)-N-methyl-2-pyrrolidinecarboxamide 1/4 hydrate] reads 1.63 nM; that for `CC1CN(C(=O)COc2nc(-c3ccc(Cl)cc3)nc3c2CCCC3)CC(C)O1` (centres unmarked) [Example 195, 4-[2-(4-Chlorophenyl)-5,6,7,8-tetrahydro-4-quinazolinyloxy] acetyl-2,6-dimethylmorpholine], 2 nM.

Turning to `CCCN(CCC)C(=O)COc1nc(-c2ccc(Cl)cc2)nc2c1CCCC2` [Example 131], the IC50 turned out to be 0.89 nM. The result for `CCCCN(CCCC)C(=O)COc1nc(-c2ccc(Cl)cc2)nc2c1CCCC2` [Example 135] reads 3.17 nM; that for `CCCCN(CCCC)C(=O)CNc1nc(-c2ccc(F)cc2)nc2c1CCCC2` [Example 106], 4.24 nM. In turn, `CN(C(=O)COc1nc(-c2ccccc2)nc2c1CCCC2)c1ccc(F)cc1` [Example 184] yielded an IC50 of 0.82 nM. Compound `CCCN(CCC)C(=O)CNc1nc(-c2ccc(F)cc2)nc2c1CCCC2` [Example 103] displayed an IC50 of 2.9 nM. The result for `CCCN(CCC)C(=O)CN(C)c1nc(-c2ccccc2)nc2c1CCCC2` [Example 110] reads 1.99 nM; that for `CCCCN(C(=O)CNc1nc(-c2ccccc2)nc(C)c1C)c1ccccc1` [Example 57], 5.39 nM. The result for `CN(C(=O)CNc1nc(-c2ccccc2)ncc1N)c1ccccc1` [Example 124, 2-(5-amino-2-phenyl-4-pyrimidinylamino)-N-methyl-N-phenylacetamide] reads 5.35 nM; that for `CCN(C(=O)CNc1nc(-c2ccc(C(F)(F)F)cc2)nc(C)c1C)c1ccccc1` [Example 49], 0.23 nM.

In turn, `Cc1nc(-c2ccccc2)nc(OCC(=O)N(C)c2ccccc2)c1C` [Example 143] gave an IC50 of 1.4 nM. Turning to `CCc1c(C)nc(-c2ccccc2)nc1OCC(=O)N(C)c1ccc(Cl)cc1` [Example 156], the IC50 came out at 4.96 nM. The result for `CN(C(=O)COc1nc(-c2ccccc2)nc2c1CCCC2)c1cccc(Cl)c1` [Example 187] reads 9.71 nM. The result for `O=C(COc1nc(-c2ccccc2)nc2c1CCCC2)Nc1ccc(F)cc1` [Example 183] reads 8.75 nM. As for `CCc1c(C)nc(-c2ccccc2)nc1NCC(=O)N(C)c1ccc(Cl)cc1` [Example 84, N-(4-chlorophenyl)-2-(5-ethyl-6-methyl-2-phenyl-4-pyrimidinylamino)-N-methylacetamide], the IC50 worked out at 2.04 nM. Take `CCCN(CCC)C(=O)COc1nc(-c2ccccc2)nc2c1CCCC2` [Example 161]: the half-inhibitory concentration (IC50) was determined as 1.05 nM. The compound `CN(C(=O)COc1nc(-c2ccc(Cl)cc2)nc2c1CCCC2)c1ccc(Cl)cc1` [Example 163] gave an IC50 of 2.64 nM. The result for `CCCN(CCC)C(=O)COc1nc(-c2ccc(F)cc2)nc2c1CCCC2` [Example 128, 2-[2-(4-fluorophenyl)-5,6,7,8-tetrahydro-4-quinazolinyloxy]-N,N-dipropylacetamide] reads 0.79 nM; that for `CCCN(CCC)C(=O)COc1nc(-c2ccc([N+](=O)[O-])cc2)nc(C)c1C` [Example 142], 0.08 nM. The result for `Cc1nc(-c2ccc(Cl)cc2)nc(NCC(=O)N2CC(C)OC(C)C2)c1C` (centres unmarked) [Example 68, 4-[2-(4-Chlorophenyl)-5,6-dimethyl-4-pyrimidinylamino]acetyl-2,6-dimethylmorpholine] reads 2.19 nM. For `Cc1nc(-c2ccc(C(F)(F)F)cc2)nc(NCC(=O)N(C)c2ccccc2)c1C` [Example 27], the IC50 came to 0.11 nM. The result for `Cc1nc(-c2ccccc2)nc(OCC(=O)N2CC(C)CC(C)C2)c1C` (centres unmarked) [Example 170, 3,5-dimethyl-1-(5,6-dimethyl-2-phenyl-4-pyrimidinyloxy)acetylpiperidine] reads 0.99 nM; that for `CCCN(CCC)C(=O)CN(C)c1nc(-c2ccccc2)nc(C)c1C` [Example 70, 2-[methyl-(5,6-dimethyl-2-phenyl-4-pyrimidinyl)amino]-N,N-dipropylacetamide], 1.12 nM. With `CCCN(CCC)C(=O)COc1cc(-c2ccccc2)nc(-c2ccccc2)n1` [Example 158], the IC50 was found to be 4.07 nM. The compound `CCN(C(=O)CNc1nc(-c2ccccc2)nc(C)c1C)c1ccc(Cl)cc1` [Example 51] showed an IC50 of 0.32 nM.

Regarding `CCCN(CCC)C(=O)C1CCCN1c1nc(-c2ccccc2)nc2c1CCCC2` (centres unmarked) [Example 119, 1-(5,6,7,8-Tetrahydro-2-phenyl-4-quinazolinyl)-N,N-dipropyl-2-pyrrolidinecarboxamide], the IC50 worked out at 1.45 nM. The result for `CCN(CC)C(=O)COc1nc(-c2ccccc2)nc2c1CCCC2` [Example 179] reads 4.3 nM; that for `CCCN(CCC)C(=O)CNc1nc(-c2ccccc2)nc(-c2ccccc2)c1C` [Example 97], 2.27 nM; that for `CCCN(CCC)C(=O)COc1cc(C)nc(-c2ccccc2)n1` [Example 166, 2-(6-methyl-2-phenyl-4-pyrimidinyloxy)-N,N-dipropylacetamide], 5.4 nM. The result for `Cc1nc(-c2ccccc2)nc(N(C)CC(=O)N(C)c2ccc(Cl)cc2)c1C` [Example 76] reads 1.33 nM; that for `CCN(CC)C(=O)COc1nc(-c2ccccc2)nc(C)c1C` [Example 175], 1.9 nM; that for `CN(CC(=O)N(C)c1ccc(Cl)cc1)c1nc(-c2ccccc2)nc2c1CCCC2` [Example 111], 2.05 nM.

Take `Cc1nc(-c2ccc(C(F)(F)F)cc2)nc(OCC(=O)N(C)c2ccccc2)c1C` [Example 147]: the IC50 is 0.52 nM. For the compound `Cc1nc(-c2ccccc2)nc(OCC(=O)N(CC2CC2)c2ccccc2)c1C` [Example 190, N-cyclopropylmethyl-2-(5,6-dimethyl-2-phenyl-4-pyrimidinyloxy)-N-phenylacetamide], the concentration for half-maximal inhibition (IC50) turned out to be 4 nM. In the case of `CCCN(CCC)C(=O)COc1nc(-c2ccccc2)nc(-c2ccccc2)c1C` [Example 159], the IC50 turned out to be 2 nM. `CCCN(CCC)C(=O)COc1nc(-c2cccc(Cl)c2)nc2c1CCCC2` [Example 130] registered an IC50 of 1.31 nM.

In turn, `CCCCN(CCCC)C(=O)COc1nc(-c2ccccc2)nc2c1CCCC2` [Example 133] came in with an IC50 of 2.2 nM.

The values above are taken from patent US5972946A, “Acetamide derivative, process for preparing the same, and a pharmaceutical composition containing the same” (Dainippon Pharmaceutical Co., Ltd., priority 1995, dated 1999).
